Data taken from PMC9046198, “Peptidoglycan biosynthesis is driven by lipid transfer along enzyme-substrate affinity gradients” (Nature Communications, 2022).

Tests used:
[1] = molecular target: T1, MraY (Aquifex aeolicus, UniProt O66465); assay: native MS, endogenous adducts and exogenous C55-P titration; assay type: binding
T1 construct: wild-type MraY, MBP tag removed with HRV3C protease
T1 sequence (O66465 1-359): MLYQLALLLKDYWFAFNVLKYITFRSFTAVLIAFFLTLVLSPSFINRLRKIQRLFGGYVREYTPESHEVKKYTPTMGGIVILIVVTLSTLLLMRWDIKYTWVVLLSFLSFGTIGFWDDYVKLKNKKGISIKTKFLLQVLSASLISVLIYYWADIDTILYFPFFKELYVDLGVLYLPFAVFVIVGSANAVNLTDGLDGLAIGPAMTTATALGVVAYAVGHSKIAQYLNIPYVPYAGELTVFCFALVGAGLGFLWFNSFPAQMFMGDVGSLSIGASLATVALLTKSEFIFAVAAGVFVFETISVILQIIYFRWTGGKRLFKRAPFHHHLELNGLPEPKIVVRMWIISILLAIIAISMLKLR

[2] = molecular target: T2, MurG (Escherichia coli, UniProt P17443); assay: turnover by purified MurG (with MraY-bound lipid I) to lipid II monitored by native MS; assay type: biochemical
T2 construct: MurG-GFP-His6 fusion, tag removed with TEV protease
T2 sequence (P17443 2-355): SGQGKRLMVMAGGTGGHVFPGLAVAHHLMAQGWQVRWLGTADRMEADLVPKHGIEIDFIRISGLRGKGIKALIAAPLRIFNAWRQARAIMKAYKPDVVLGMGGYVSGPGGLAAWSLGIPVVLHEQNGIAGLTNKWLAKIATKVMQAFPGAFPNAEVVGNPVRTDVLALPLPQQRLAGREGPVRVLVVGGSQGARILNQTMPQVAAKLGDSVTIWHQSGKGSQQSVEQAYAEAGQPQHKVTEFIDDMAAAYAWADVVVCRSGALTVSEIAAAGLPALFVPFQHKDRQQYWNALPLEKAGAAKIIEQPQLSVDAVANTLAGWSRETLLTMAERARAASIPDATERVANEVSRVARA

[3] = molecular target: T2, MurG; assay: native MS titration ([…] MurG, […] lipid I), apparent Kd; assay type: binding
[4] = molecular target: T2, MurG; assay: native MS titration, apparent Kd; assay type: binding
[5] = molecular target: T1, MraY; assay: native MS binding to MraY dimer; also inhibits lipid I synthesis by purified MraY ([…])

CC(C)=CCC/C(C)=C/CC/C(C)=C/CC/C(C)=C\CC/C(C)=C\CC/C(C)=C\CC/C(C)=C\CC/C(C)=C\CC/C(C)=C\CC/C(C)=C\CC/C(C)=C\COP(=O)(O)O [C55-P, undecaprenyl phosphate]
native MS, endogenous adducts and exogenous C55-P titration [1]: The binding of up to four C55-P molecules per MraY dimer could be clearly resolved

CC(=O)N[C@H]1[C@@H](OP(=O)(O)OP(=O)(O)OC[C@H]2O[C@@H](n3ccc(=O)[nH]c3=O)[C@H](O)[C@@H]2O)O[C@H](CO)[C@@H](O)[C@@H]1O [UDP-GlcNAc]
turnover by purified MurG (with MraY-bound lipid I) to lipid II monitored by nat [2]: we incubated MraY with MurG and UDP-GlcNAc and observed the formation of lipid II

CC(=O)N[C@H]1[C@@H](OP(=O)(O)OP(=O)(O)OC/C=C(/C)CC/C=C(/C)CC/C=C(/C)CC/C=C(/C)CC/C=C(/C)CC/C=C(/C)CC/C=C(/C)CC/C=C(/C)CC/C=C(\C)CC/C=C(\C)CCC=C(C)C)O[C@H](CO)[C@@H](O)[C@@H]1O[C@H](C)C(=O)N[C@@H](C)C(=O)N[C@H](CCC(=O)N[C@@H](CCCCN)C(=O)N[C@H](C)C(=O)N[C@H](C)C(=O)O)C(=O)O [lipid I]
Kd [3]: 1900 ± 400 nM

lipid II
Kd [4]: 2600 ± 900 nM

tunicamycin
native MS binding to MraY dimer; also inhibits lipid I synthesis by purified Mra [5]: We also captured the binding of a nucleoside antibiotic tunicamycin to the MraY dimer.
